This note sets out measurements from patent US20050245399A1, “Pyrazole derivatives as herbicidal compositions containing them” (ISHIHARA SANGYO KAISHA, LTD., priority 2004, published 2005).

Type in all cases: in vivo
Assay [1] relates to barnyardgrass (Echinochloa crus-galli L.): ECHCG. Briefly: Test Example 1 pre-emergence herbicidal activity, ECHCG. Conditions: Rate 63 g a.i./ha, visually observed 20th to 23rd day after application. The method, boiled down:
(§1)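 Plants were sown in pots of upland field soil and treated the following day, before emergence, with the formulated compound sprayed in 500 L/ha water. Herbicidal effect was judged by eye 20–23 days later on a 0–100% scale.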

Assay [2] has as its system crabgrass (Digitaria sanguinalis L.): DIGSA. The assay can be described thus: Test Example 1 pre-emergence herbicidal activity, DIGSA. Conditions: Rate 63 g a.i./ha, visually observed 20th to 23rd day after application. The method, boiled down: as §1
For assay [3], the system named is green foxtail (Setaria viridis L.): SETVI. The assay can be described thus: Test Example 1 pre-emergence herbicidal activity, SETVI. To be noted: Rate 63 g a.i./ha, visually observed 20th to 23rd day after application. Put shortly:
as §1

The test system of assay [4] is redroot pigweed (Amaranthus retroflexus L.): AMARE. Briefly: Test Example 1 pre-emergence herbicidal activity, AMARE. Conditions: Rate 63 g a.i./ha, visually observed 20th to 23rd day after application. The method, boiled down:
as §1

The subject of assay [5] is prickly sida (Sida spinosa L.): SEDSP. Briefly: Test Example 1 pre-emergence herbicidal activity, SIDSP. Conditions: Rate 63 g a.i./ha, visually observed 20th to 23rd day after application. Put shortly:
as §1

Assay [6] concerns velvetleaf (Abutilon theophrasti): ABUTH. Briefly: Test Example 1 pre-emergence herbicidal activity, ABUTH. Conditions: Rate 63 g a.i./ha, visually observed 20th to 23rd day after application. Put shortly: as §1
The subject of assay [7] is rice (Oryza sativa L.): ORYSA. The assay can be described thus: Test Example 1 pre-emergence herbicidal activity, ORYSA. To be noted: Rate 63 g a.i./ha, visually observed 20th to 23rd day after application. Put shortly:
as §1

Assay [8] deals with wheat (Triticum aestivum L.): TRZAX. The assay can be described thus: Test Example 1 pre-emergence herbicidal activity, TRZAX. Conditions: Rate 63 g a.i./ha, visually observed 20th to 23rd day after application. Put shortly: as §1
In assay [9] the test system is corn (Zea mays L.): ZEAMX. The assay can be described thus: Test Example 1 pre-emergence herbicidal activity, ZEAMX. To be noted: Rate 63 g a.i./ha, visually observed 20th to 23rd day after application. Put shortly: as §1
For assay [10], the system named is soybean (Glycine max Merr.): GLXMA. The assay can be described thus: Test Example 1 pre-emergence herbicidal activity, GLXMA. To be noted: Rate 63 g a.i./ha, visually observed 20th to 23rd day after application. Put shortly: as §1
For assay [11], the system named is barnyardgrass (Echinochloa crus-galli L.), ECHCG. The assay can be described thus: Test Example 2 post-emergence (foliage treatment) herbicidal activity, ECHCG. To be noted: 63 g a.i./ha. Put shortly: (§2)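 Seeds are sown in upland soil in pots, and seedlings are sprayed once they reach set leaf stages (pigweed 0.1-1.5, barnyardgrass 1.1-2.1, crabgrass 1.0-2.0, rice 1.0-2). The formulated compound goes on in 500 L/ha water containing 0.1% (v/v) spreader. Effect is judged by eye 20-23 days on, as percent control.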

Assay [12] relates to crabgrass (Digitaria sanguinalis L.), DIGSA. Briefly: Test Example 2 post-emergence (foliage treatment) herbicidal activity, DIGSA. To be noted: 63 g a.i./ha. The method, boiled down:
as §2

Assay [13] has as its system green foxtail (Setaria viridis L.), SETVI. The assay can be described thus: Test Example 2 post-emergence (foliage treatment) herbicidal activity, SETVI. Conditions: 63 g a.i./ha. Put shortly: (§3)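 A small sprayer delivered the diluted WP or EC formulation (500 L/ha water, 0.1% v/v spreader) over emerged seedlings in upland soil pots. Damage relative to untreated plants was graded visually from 0 to 100% three weeks or so later (days 20-23).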

The test system of assay [14] is redroot pigweed (Amaranthus retroflexus L.), AMARE. The assay can be described thus: Test Example 2 post-emergence (foliage treatment) herbicidal activity, AMARE. To be noted: 63 g a.i./ha. The method, boiled down:
as §2

Assay [15] relates to prickly sida (Sida spinosa L.), SIDSP. The assay can be described thus: Test Example 2 post-emergence (foliage treatment) herbicidal activity, SIDSP. Conditions: 63 g a.i./ha. Put shortly:
as §3

Assay [16] deals with velvetleaf (Abutilon theophrasti), ABUTH. Briefly: Test Example 2 post-emergence (foliage treatment) herbicidal activity, ABUTH. Conditions: 63 g a.i./ha. Put shortly:
as §3

In assay [17] the test system is rice (Oryza sativa L.), ORYSA. Briefly: Test Example 2 post-emergence (foliage treatment) herbicidal activity, ORYSA. To be noted: 63 g a.i./ha. The method, boiled down: as §2
Assay [18] relates to wheat (Triticum aestivum L.), TRZAX. Briefly: Test Example 2 post-emergence (foliage treatment) herbicidal activity, TRZAX. To be noted: 63 g a.i./ha. Put shortly:
as §3

In assay [19] the test system is corn (Zea mays L.), ZEAMX. Briefly: Test Example 2 post-emergence (foliage treatment) herbicidal activity, ZEAMX. Conditions: 63 g a.i./ha. Put shortly: as §3
Assay [20] deals with soybean (Glycine max Merr.), GLXMA. The assay can be described thus: Test Example 2 post-emergence (foliage treatment) herbicidal activity, GLXMA. Conditions: 63 g a.i./ha. The method, boiled down:
as §3

In the case of `COc1c(Cl)cc(F)c(-c2nn(C)c(OC(F)F)c2Cl)c1NC(=O)OC(C)C` [Compound 1-75], the “Pre-emergence Herbicidal Activity ECHCG (growth controlling degree)” value (“Pre-emergence Herbicidal Activity ECHCG” below) in assay [1] turned out to be 70%. Also, the “Pre-emergence Herbicidal Activity DIGSP (growth controlling degree)” value (shortened to “Pre-emergence Herbicidal Activity DIGSP”) in assay [2] is given as 100%. The “Pre-emergence Herbicidal Activity SETVI (growth controlling degree)” value (“Pre-emergence Herbicidal Activity SETVI” for short) in assay [3] turned out to be 100%. The “Pre-emergence Herbicidal Activity AMARE (growth controlling degree)” value (“Pre-emergence Herbicidal Activity AMARE” below) in assay [4] amounted to 100%. The “Pre-emergence Herbicidal Activity SIDSP (growth controlling degree)” value (shortened to “Pre-emergence Herbicidal Activity SIDSP”) in assay [5] is listed as 60%. The “Pre-emergence Herbicidal Activity ABUTH (growth controlling degree)” value (“Pre-emergence Herbicidal Activity ABUTH” for short) in assay [6] is given as 100%. Further, in assay [7], the “Pre-emergence Herbicidal Activity ORYSA (growth controlling degree)” value (“Pre-emergence Herbicidal Activity ORYSA” below) is recorded as 30%. In addition, the “Pre-emergence Herbicidal Activity TRZAX (growth controlling degree)” value (shortened to “Pre-emergence Herbicidal Activity TRZAX”) in assay [8] amounted to 30%. Moreover, the “Pre-emergence Herbicidal Activity ZEAMX (growth controlling degree)” value (“Pre-emergence Herbicidal Activity ZEAMX” for short) in assay [9] is recorded as 10%. Moreover, the “Pre-emergence Herbicidal Activity GLXMA (growth controlling degree)” value (“Pre-emergence Herbicidal Activity GLXMA” below) in assay [10] worked out at 0%. In assay [11], the “growth controlling degree, ECHCO” value is 100%. Moreover, in [12], the “growth controlling degree, DIGSP” value was 50%. Besides, the “growth controlling degree, SETVI” value in assay [13] was found to be 100%. In addition, in assay [14], the “growth controlling degree, AMARE” value is 100%. Besides, in [15], the “growth controlling degree, SIDSP” value came out at 100%. Also, the “growth controlling degree, ABUTH” value in assay [16] is listed as 100%. For the same compound, the “growth controlling degree, ORYSA” value in [17] was determined as 80%. In addition, the “growth controlling degree, TRZAX” value in assay [18] is 50%. Also, the “growth controlling degree, ZEAMX” value in assay [19] is on record as 50%. Also, in [20], the “growth controlling degree, GLXMA” value stood at 60%.

On to `COc1c(Cl)cc(F)c(-c2nn(C)c(OC(F)F)c2Cl)c1NC(=O)C(C)=Cc1ccccc1` [Compound 1-251], for which the “Pre-emergence Herbicidal Activity ECHCG” value in assay [1] is 0%. The “Pre-emergence Herbicidal Activity DIGSP” value in [2] came to 20%. The “Pre-emergence Herbicidal Activity SETVI” value in assay [3] came to 20%. The “Pre-emergence Herbicidal Activity AMARE” value in [4] came to 100%. The “Pre-emergence Herbicidal Activity SIDSP” value in assay [5] amounted to 20%. Moreover, the “Pre-emergence Herbicidal Activity ABUTH” value in assay [6] stood at 30%. Besides, the “Pre-emergence Herbicidal Activity ORYSA” value in assay [7] was determined as 10%. The “Pre-emergence Herbicidal Activity TRZAX” value in assay [8] is on record as 0%. The “Pre-emergence Herbicidal Activity ZEAMX” value in assay [9] was determined as 0%. For the same compound, in assay [10], the “Pre-emergence Herbicidal Activity GLXMA” value is 0%. In [11], the “growth controlling degree, ECHCO” value was 60%. In addition, the “growth controlling degree, DIGSP” value in assay [12] came out at 70%. For the same compound, in assay [13], the “growth controlling degree, SETVI” value stood at 60%. Besides, the “growth controlling degree, AMARE” value in assay [14] was 100%. Besides, in assay [15], the “growth controlling degree, SIDSP” value is 95%. In addition, in [16], the “growth controlling degree, ABUTH” value came to 95%. In assay [17], the “growth controlling degree, ORYSA” value is listed as 10%. Further, the “growth controlling degree, TRZAX” value in assay [18] turned out to be 20%. The “growth controlling degree, ZEAMX” value in assay [19] is recorded as 10%. Moreover, the “growth controlling degree, GLXMA” value in [20] turned out to be 40%.

As for `COc1c(Cl)cc(F)c(-c2nn(C)c(OC(F)F)c2Cl)c1NC(=O)C=Cc1ccccc1C` [Compound 1-253], the “Pre-emergence Herbicidal Activity ECHCG” value in assay [1] is on record as 20%. For the same compound, the “Pre-emergence Herbicidal Activity DIGSP” value in assay [2] came to 70%. The “Pre-emergence Herbicidal Activity SETVI” value in [3] is 50%. Besides, the “Pre-emergence Herbicidal Activity AMARE” value in assay [4] is recorded as 100%. Moreover, the “Pre-emergence Herbicidal Activity SIDSP” value in assay [5] was 30%. Besides, the “Pre-emergence Herbicidal Activity ABUTH” value in assay [6] is 40%. Besides, the “Pre-emergence Herbicidal Activity ORYSA” value in [7] stood at 10%. In addition, in assay [8], the “Pre-emergence Herbicidal Activity TRZAX” value is recorded as 0%. The “Pre-emergence Herbicidal Activity ZEAMX” value in assay [9] is listed as 0%. Further, the “Pre-emergence Herbicidal Activity GLXMA” value in assay [10] is reported as 0%. For the same compound, in [11], the “growth controlling degree, ECHCO” value was determined as 80%. Further, the “growth controlling degree, DIGSP” value in assay [12] came out at 30%. Further, the “growth controlling degree, SETVI” value in assay [13] turned out to be 100%. In assay [14], the “growth controlling degree, AMARE” value was found to be 100%. In addition, the “growth controlling degree, SIDSP” value in [15] is 100%. In addition, the “growth controlling degree, ABUTH” value in assay [16] is listed as 100%. The “growth controlling degree, ORYSA” value in [17] came out at 70%. The “growth controlling degree, TRZAX” value in [18] was found to be 50%. Also, in assay [19], the “growth controlling degree, ZEAMX” value was 40%. For the same compound, the “growth controlling degree, GLXMA” value in assay [20] is 80%.
